Patent US10398715B2, “Methods for increasing brain functionality using 2-fucosyl-lactose” (priority 2012, dated 2019)

Columns and labels:
[1] = test system: hippocampal CA3-CA1 synapse; test: Paired-pulse test in alert behaving rats; assay type: in vivo, Sprague Dawley rats; settings: 1 g/kg p.o., before, 90 min and 180 min after administration, FIG. 3
Description: (§1) In this Example, the effect of 2FL on LTP of the hippocampal CA3-CA1 synapse in alert behaving rats was analyzed,
(§2) A total of four male Sprague Dawley rats, each 2 months old weighing from 150-200 g, were placed in individual cages with food and water ad libitum. Rats were kept on a 12/12 hour light/dark cycle with constant ambient temperature (22±1° C.) and humidity (50±7%). All tests were conducted during the light cycle.
(§3) The rats were anesthetized with 0.8%-3% isofluorane (available from AstraZeneca, Madrid, Spain) delivered via a home-made mask. […] was administered from a calibrated Fluotec 5 vaporizer (available from Fluotec-Ohmeda, Tewksbury, Mass.) at a flow rate of 1-4 L/min oxygen. Once anesthetized, the rats were implanted with stimulating and recording electrodes in the hippocampus. […] The recording electrodes were fixed at the site where a reliable monosynaptic field excitatory post-synaptic potential (fEPSP) was recorded. […]
(§4) Control values for input/output curves and paired-pulse facilitation in the four rats were determined. […]

[2] = test system: hippocampal CA3-CA1 synapse; test: Hippocampal LTP response in early stressed maternally deprived mice (fEPSP recordings); assay type: in vivo, C57BL/6 mice; settings: MS-stressed mice, AIN93G diet supplemented with 2-fucosyllactose (~7 mg/day/mouse) for eight weeks; compared with the control groups, p<0.05; FIG. 1
Description: In this Example, the effect of 2-fucosyl-lactose on hippocampal LTP response in early stressed maternally deprived mice was analyzed.
Initially, mice pups were early stressed using a model of maternal separation. Particularly, one day after delivery, C57BL/6 mice pups were sexed and grouped as sham (non-stressed Control group) or maternally separated (MS—stressed group) animals. From day 2 until day 14 after delivery, the MS pups were removed from the dam and kept isolated for a period of 4 hours per day, typically, from 10:00 AM to 2:00 PM, in a thermostatted cup. During the same time period, pups from the sham group were daily handled for a period of five minutes in order to receive the same grade of habituation to a researcher's hands as the MS pups.
Each dam had litters of 4 males and 2 females. Females were allowed to stay with the mother, while males were maternally deprived in order to avoid stressing the dam by removing all of the pups. […]
At the nutritional intervention stage, mice were fed experimental diets for a period of eight weeks. […] The recording electrodes were fixed at the site where a reliable monosynaptic field excitatory post-synaptic potential (fEPSP) was recorded. […]
For evoking LTP, each animal was presented with five 200 Hz, […] trains of pulses at a rate of 1/s. […] After, fEPSPs were recorded again for 30 minutes. […]

[3] = test system: hippocampal CA3-CA1 synapse; test: Input/output curves evoked at the hippocampal CA3-CA1 synapse in alert behaving rats; assay type: in vivo, Sprague Dawley rats; settings: 1 g/kg p.o. in gelatin, 90 and 180 minutes after administration vs before, FIG. 2
Description: as §1, §2, §3, §4

[4] = test system: Acetylcholinesterase (AChE); test: Acetylcholinesterase (AChE) levels in zebrafish embryos; assay type: in vivo; settings: zebrafish larvae, 74.73 mg per liter, 24 hours at 26° C.; negative control water; FIG. 5
Description: In this Example, the effect of 2FL on Acetylcholinesterase (AChE) in zebrafish embryos was analyzed.
Zebrafish embryos were grown in water for 96 post-fertilization hours, when eclosion occurs. The larvae were then transferred into a 24-well culture dish and incubated for 24 hours at 26° C. in a dilution of 74.73 mg of 2FL per liter. A negative control (water) and a positive control for AChE (100 mg docosahexaenoic acid/liter) were included in the assay.
After incubation, larvae were homogenized and centrifuged. AChE levels and total protein content were determined in the resultant supernatants. Two separate assays were done in triplicates. Specific AChE activity data were referred to control and analyzed by ANOVA. Bonferroni post hoc tests were used for comparisons.

[5] = test system: hippocampal CA3-CA1 synapse; test: LTP induction in behaving rats; assay type: in vivo, Sprague Dawley rats; settings: after 15 days of daily administration of 1 g/kg, vs control values, FIG. 4
Description: as §1, §2, §3
For evoking LTP, each rat was presented with five 200 Hz, 100 ms trains of pulses at a rate of 1/s. […] After, fEPSPs were recorded again for 30 minutes. […]

For 2-fucosyl-lactose [2FL], the “paired-pulse facilitation, differences between the three recording sessions” value [1] was “no significant differences”, the “potentiation of field excitatory post-synaptic potentials evoked at the hippocampal CA3-CA1 synapse” value [2] was “larger, longer-lasting potentiation” and the “amplitude of fEPSPs evoked at the CA3-CA1 synapse (input/output curves)” value [3] was “significantly larger”. For the same substance, the “AChE levels compared to the negative control” value [4] was “significant increase” and the “fEPSPs of LTP evoked after HFS of the hippocampal CA3-CA1 synapse” value [5] was “significantly larger fEPSPs than control values”.
